Residues, ends and D or L forms follow the SMILES beside them.
Legend:
[1] = cited from earlier work; for sweetening potency: relative to sucrose
[2] = Quality of sweetness (early taste, later taste, astringency) in comparison to sucrose; details: for early taste / later taste: determined in comparison to sucrose
Description: Early taste and late taste are determined in comparison to sucrose. For example, a sweetener, when put in the mouth, can taste sweet as early as sucrose or later than sucrose.

| Structure (SMILES) | sweetening potency (in words) ([1]; as shown in French Patent No. 2697844) | sweetening potency [1] | astringency (astringent taste) [2] | quality of sweetness ([2]; compared to sucrose / single ingredients) | early taste [2] | later taste [2] |
| --- | --- | --- | --- | --- | --- | --- |
| COC(=O)[C@H](Cc1ccccc1)NC(=O)[C@H](CC(=O)O)NCCC(C)(C)C [N-(3,3-dimethylbutyl)-APM, N-[N-(3,3-dimethylbutyl)-L-α-aspartyl]-L-phenylalanine methyl ester] | markedly improved sweetening potency | 10,000 times that of sucrose | strong in astringency | badly balanced | extremely weak | extremely strong |
| COC(=O)[C@H](Cc1ccccc1)NC(=O)[C@@H](N)CC(=O)O [APM, aspartame] (H-Asp-Phe-OMe) | – | about 200 times that of sucrose | – | – | weak in early taste | strong in later taste |
